This passage reports IC50 results from patent publication US11932601B2, “Immunoregulatory agents” (FLEXUS BIOSCIENCES, INC., priority 2014, dated 2024).

T1 sequence (P14902 whole entry): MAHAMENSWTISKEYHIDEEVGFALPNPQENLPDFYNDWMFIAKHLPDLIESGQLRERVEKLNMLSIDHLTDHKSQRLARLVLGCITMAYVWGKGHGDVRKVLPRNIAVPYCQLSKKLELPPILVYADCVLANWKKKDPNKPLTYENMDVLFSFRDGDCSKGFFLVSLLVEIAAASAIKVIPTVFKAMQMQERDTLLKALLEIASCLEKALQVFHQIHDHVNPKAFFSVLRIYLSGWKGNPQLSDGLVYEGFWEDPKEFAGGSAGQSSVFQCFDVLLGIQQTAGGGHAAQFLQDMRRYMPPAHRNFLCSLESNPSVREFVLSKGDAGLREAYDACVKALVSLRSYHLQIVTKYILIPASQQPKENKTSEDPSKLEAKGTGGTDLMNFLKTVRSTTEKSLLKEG

The assay concerns the target T1, human IDO1 (Homo sapiens, UniProt P14902).
T1 construct: expressed in transfected cells
As to the kind of experiment: HEK293 cells stably expressing human IDO1, IDO inhibition assay (kynurenine, Ehrlich reagent, absorbance 490 nm). The class given is cell-based. As to conditions: 20 hours incubation, 500 nM reference standard = 100% inhibition, read-out: HEK Human IDO-1 Biological Activity (IC50). The protocol:
HEK293 cells were transfected with a pCDNA-based mammalian expression vector harboring human IDO1 cDNA (NM 002164.2) by electroporation. They were cultured in medium (DMEM with 10% FBS) containing 1 mg/ml G418 for two weeks. Clones of HEK293 cells that stably expressed human IDO1 protein were selected and expanded for IDO inhibition assay.
The human IDO1/HEK293 cells were seeded at 10,000 cells per 50 μL per well with RPMI/phenol red free media contains 10% FBS in a 384-well black wall clear bottom tissue culture plate (Matrix Technologies LLC) 100 nL of certain concentration of compound was then added to each well using ECHO liquid handling systems. The cells were incubated for 20 hours in 37° C. incubator with 5% CO2.
The compound treatments were stopped by adding Trichloroacetic Acid (Sigma-Aldrich) to a final concentration at 0.2%. The cell plate was further incubated at 50° C. for 30 minute. The equal volume supernatant […] and 0.2% (w/v) Ehrlich reagent (4-dimethylaminobenzaldehyde, Sigma-Aldrich) in glacial acetic acid were mixed in a new clear bottom 384-well plate. This plate was then incubated at room temperature for 30 minute. The absorbance at 490 nm was measured on Envision plate reader.
By IC50 is commonly meant the midpoint of a concentration-inhibition curve. With `CCC(C(=O)Nc1ccc(Cl)cc1)[C@H]1CC[C@H](Oc2ccncc2C(F)(F)F)CC1` (mixture of isomers) [Example 305, N-(4-Chlorophenyl)-2-(trans-4-((3-(trifluoromethyl)pyridin-4-yl)oxy)cyclohexyl)butanamide], the 50% inhibitory concentration (IC50) is greater than 0.25 µM.
The value for `CCC(C(=O)Nc1ccc(Cl)cc1)[C@H]1CC[C@@H](Oc2ccncc2)CC1` (mixture of isomers) [Example 306, N-(4-Chlorophenyl)-2-(cis-4-(pyridin-4-yloxy)cyclohexyl)butanamide] was less than 0.05 µM; that for `CC(C(=O)Nc1ccc(Cl)cc1)[C@H]1CC[C@H](Oc2ccnc(C(F)(F)F)c2)CC1` (mixture of isomers) [Example 323, (+/−)-N-(4-chlorophenyl)-2-(trans-4-((2-(trifluoromethyl)pyridin-4-yl)oxy)cyclohexyl) propanamide] was less than 0.05 µM.
The value for `CCC(C(=O)Nc1ccc(Cl)cc1)[C@H]1CC[C@H](Oc2ccncc2C(F)(F)F)CC1` (single isomer, unassigned) [Example 305a, N-(4-Chlorophenyl)-2-((1r,4r)-4-((3-(trifluoromethyl)pyridin-4-yl)oxy)cyclohexyl)-2λ^3-butanamide] was greater than 0.25 µM.
The value for `CCC(C(=O)Nc1ccc(Cl)cc1)[C@H]1CC[C@H](Oc2ccncc2C(F)(F)F)CC1` (single isomer, unassigned) [Example 305b, N-(4-Chlorophenyl)-2-((1r,4r)-4-((3-(trifluoromethyl)pyridin-4-yl)oxy)cyclohexyl)-2λ^3-butanamide] was less than 0.05 µM; that for `CCC(C(=O)Nc1ccc(Cl)cc1)[C@H]1CC[C@@H](Oc2ccncc2)CC1` (single isomer, unassigned) [Example 306a, N-(4-Chlorophenyl)-2-(cis-4-(pyridin-4-yloxy)cyclohexyl)butanamide] was less than 0.05 µM.
For `CCC(C(=O)Nc1ccc(Cl)cc1)[C@H]1CC[C@@H](Oc2ccncc2)CC1` (single isomer, unassigned) [Example 306b, N-(4-Chlorophenyl)-2-(cis-4-(pyridin-4-yloxy)cyclohexyl)butanamide], the concentration for half-maximal inhibition (IC50) is greater than 0.25 µM.
On to `COc1cc([C@H]2CC[C@@H]([C@H](C)C(=O)Nc3ccc(Cl)cc3)CC2)ccn1` (single isomer, unassigned) [Example 307c, N-(4-Chlorophenyl)-2-(4-(2-methoxypyridin-4-yl)cyclohexyl)propanamide], for which the IC50 was less than 0.05 µM.
For `COc1cc([C@H]2CC[C@@H]([C@H](C)C(=O)Nc3ccc(Cl)cc3)CC2)ccn1` (single isomer, unassigned) [Example 307d, N-(4-Chlorophenyl)-2-(4-(2-methoxypyridin-4-yl)cyclohexyl)propanamide] the value was less than 0.05 µM; for `COc1cc([C@H]2CC[C@@H]([C@H](C)C(=O)Nc3ccc(Cl)cc3)CC2)ccn1` (single isomer, unassigned) [Example 307e, N-(4-Chlorophenyl)-2-(4-(2-methoxypyridin-4-yl)cyclohexyl)propanamide], less than 0.25 µM; for `COc1cc([C@H]2CC[C@@H]([C@H](C)C(=O)Nc3ccc(Cl)cc3)CC2)ccn1` (single isomer, unassigned) [Example 307f, N-(4-Chlorophenyl)-2-(4-(2-methoxypyridin-4-yl)cyclohexyl)propanamide], less than 0.05 µM.
The value for `Cc1cc(C2CCC(C(C)C(=O)Nc3ccc(Cl)cc3)CC2)cc(C)n1` (single isomer, unassigned) [Example 308a, N-(4-chlorophenyl)-2-(4-(2,6-dimethylpyridin-4-yl)cyclohexyl) propanamide] was less than 0.25 µM; that for `Cc1cc(C2CCC(C(C)C(=O)Nc3ccc(Cl)cc3)CC2)cc(C)n1` (single isomer, unassigned) [Example 308b, N-(4-chlorophenyl)-2-(4-(2,6-dimethylpyridin-4-yl)cyclohexyl) propanamide] was less than 0.05 µM.
For `Cc1cc(C2CCC(C(C)C(=O)Nc3ccc(Cl)cc3)CC2)cc(C)n1` (single isomer, unassigned) [Example 308c, N-(4-chlorophenyl)-2-(4-(2,6-dimethylpyridin-4-yl)cyclohexyl) propanamide] the value was greater than 0.25 µM.
`Cc1cc(C2CCC(C(C)C(=O)Nc3ccc(Cl)cc3)CC2)ccn1` (single isomer, unassigned) [Example 309a, N-(4-chlorophenyl)-2-(4-(2-methylpyridin-4-yl)cyclohexyl) propanamide]: the half-maximal inhibitory concentration (IC50) was greater than 0.25 µM.
For `Cc1cc(C2CCC(C(C)C(=O)Nc3ccc(Cl)cc3)CC2)ccn1` (single isomer, unassigned) [Example 309b, N-(4-chlorophenyl)-2-(4-(2-methylpyridin-4-yl)cyclohexyl) propanamide] the value was less than 0.05 µM.
For `Cc1cc(C2CCC(C(C)C(=O)Nc3ccc(Cl)cc3)CC2)ccn1` (single isomer, unassigned) [Example 309c, N-(4-chlorophenyl)-2-(4-(2-methylpyridin-4-yl)cyclohexyl) propanamide] the value was greater than 0.25 µM; for `Cc1cc(C2CCC(C(C)C(=O)Nc3ccc(Cl)cc3)CC2)ccn1` (single isomer, unassigned) [Example 309d, N-(4-chlorophenyl)-2-(4-(2-methylpyridin-4-yl)cyclohexyl) propanamide], less than 0.05 µM.
For `Cc1c(C2CCC(C(C)C(=O)Nc3ccc(Cl)cc3)CC2)ccnc1F` (single isomer, unassigned) [Example 310a, (+/−)N-(4-chlorophenyl)-2-(4-(2-fluoro-3-methylpyridin-4-yl)cyclohexyl) propanamide] the value was less than 0.05 µM; for `Cc1c(C2CCC(C(C)C(=O)Nc3ccc(Cl)cc3)CC2)ccnc1F` (single isomer, unassigned) [Example 310b, (+/-)N-(4-chlorophenyl)-2-(4-(2-fluoro-3-methylpyridin-4-yl)cyclohexyl) propanamide], less than 0.05 µM; for `Cc1c(C2CCC(C(C)C(=O)Nc3ccc(Cl)cc3)CC2)ccnc1F` (single isomer, unassigned) [Example 310c, N-(4-chlorophenyl)-2-(4-(2-fluoro-3-methylpyridin-4-yl)cyclohexyl) propanamide], less than 0.05 µM.
Turning to `Cc1c(C2CCC(C(C)C(=O)Nc3ccc(Cl)cc3)CC2)ccnc1F` (single isomer, unassigned) [Example 310d, N-(4-chlorophenyl)-2-(4-(2-fluoro-3-methylpyridin-4-yl)cyclohexyl) propanamide], the IC50 was less than 0.05 µM.
The value for `Cc1c(C2CCC(C(C)C(=O)Nc3ccc(Cl)cc3)CC2)ccnc1F` (single isomer, unassigned) [Example 310e, N-(4-chlorophenyl)-2-(4-(2-fluoro-3-methylpyridin-4-yl)cyclohexyl) propanamide] was less than 0.05 µM; that for `Cc1c(C2CCC(C(C)C(=O)Nc3ccc(Cl)cc3)CC2)ccnc1F` (single isomer, unassigned) [Example 310f, N-(4-chlorophenyl)-2-(4-(2-fluoro-3-methylpyridin-4-yl)cyclohexyl) propanamide] was less than 0.25 µM.
For `Cc1nccc(C2CCC(C(C)C(=O)Nc3ccc(Cl)cc3)CC2)c1C` (single isomer, unassigned) [Example 311a, N-(4-chlorophenyl)-2-(4-(2,3-dimethylpyridin-4-yl)cyclohexyl) propanamide], the IC50 is less than 0.05 µM.
